Reference: patent US20030091627A1, “Rate-controlled delivery of macrolides” (priority 2001, published 2003)
≈ marks a conversion by molar mass, not a printed value.

How the values were obtained:
[1] = Solubility of clarithromycin as a function of pH (tested in water without a buffer); assay type: physicochemical
[2] = acidic pH; cited from earlier work
[3] = Solubility of clarithromycin along the gastrointestinal tract; assay type: physicochemical

solubility ([1]; aqueous buffer, pH 2.4, water without a buffer, read-out: Solubility): ~10000 µg/mL (≈ 13.4 mM)
solubility ([1]; aqueous buffer, pH 5.4, water without a buffer, read-out: Solubility): ~5500 µg/mL (≈ 7.35 mM)
solubility ([1]; pH 7.4, water without a buffer): about negligible
solubility ([3]; colon, pH 7.5 to 8.5): about insoluble
solubility ([3]; duodenum (region of the gastrointestinal tract), read-out: Solubility): 5000 µg/mL (≈ 6.68 mM)
solubility ([3]; stomach (region of the gastrointestinal tract), read-out: Solubility): 10000 µg/mL (≈ 13.4 mM)
Structure (SMILES): CC[C@H]1OC(=O)[C@H](C)[C@@H](O[C@H]2C[C@@](C)(OC)[C@@H](O)[C@H](C)O2)[C@H](C)[C@@H](O[C@@H]2O[C@H](C)C[C@H](N(C)C)[C@H]2O)[C@](C)(OC)C[C@@H](C)C(=O)[C@H](C)[C@@H](O)[C@]1(C)O [Clarithromycin]
Stability [2]: stable at an acidic pH
